Measurements: patent US8546366B2, “Method for inhibition of tumor cell growth using (22R)-5α-lanosta-8,24-dien-3β,15α,21-triol” (Mackay Memorial Hospital, priority 2011, dated 2013)

What was measured:
caspase 3 and caspase 8 = assay: Caspase dependence of growth inhibition and caspase expression; type: cell-based
Text: Thus, the compound may induce apoptosis in a caspase-independent pathway.

[1] = system: human hepatoma cell line HA22T/VGH; assay: MTT cell survival assay, hepatoma cells; type: cell-based; conditions: 5 μg/ml, 72 hours
Description: The test adopted the cell survival analysis (i.e., the MTT assay as described above). The purified compound was added into the culture media with human hepatoma cell line HA22T/VGH to test for tumor cell survival. This survival assay was carried out with the abovementioned MTT assay, wherein the hepatoma cell line HA22T/VGH was obtained from Taipei Veteran General Hospital, the cell line originated from the human hepatoma.
(§1) The human hepatoma cell line HA22T/VGH was cultivated in DMEM media containing 100 IU/ml penicillin (Invitrogen, Carlsbad, Calif.), 100 μg/ml streptomycin (Invitrogen, Carlsbad, Calif.), 2 mM glutamin (Invitrogen, Carlsbad, Calif.), and 10% fetal calf serum (Atlanta Biologicals, Norcross, Ga.). The proliferated cells were treated with the compound in the concentration of 0 (the control group) and 5 μg/ml (the experimental group), respectively. The cells were incubated at 37° C. in a 5% CO2 incubator for 24-72 hours. 500 μg/ml of MTT was added into each well in the dark and incubated for 4 hours, followed by the addition of 500 μl of isopropanol to stop the reaction. The plates were read on an ELISA reader at wavelength of 570 nm to determine the survival rates.

[2] = system: human ovarian cancer cell line SKOV-3; assay: MTT cell survival assay, ovarian cancer cells; type: cell-based; conditions: 5 μg/ml, 72 hours
Description: The test adopted the cell survival analysis (i.e. the MTT assay as described above). The purified compound was added into the culture media of human ovarian cancer cell line SKOV-3 to test for tumor cell survival. This survival assay was carried out with the abovementioned MTT assay, wherein the ovarian cancer cell line SKOV-3 was purchased from American Type Culture Collection (ATCC), the cell line originated from the epithelium of human ovarian cancer.
as §1, with “ovarian cancer” for “hepatoma”, “SKOV-3” for “HA22T/VGH”

[3] = system: human cervical adenocarcinoma cell line HeLa; assay: MTT cell survival assay, cervical adenocarcinoma cells; type: cell-based; conditions: 5 μg/ml, 72 hours
Description: The test adopted the cell survival analysis (i.e., the MTT assay as described above). The purified compound was added into the culture media with human cervical adenocarcinoma cell line HeLa to test for tumor cell survival. This survival assay was carried out with the abovementioned MTT assay, wherein the cervical adenocarcinoma cell line HeLa was purchased from American Type Culture Collection (ATCC), the cell line originated from the epithelium of human cervical adenocarcinoma.
as §1, with “cervical adenocarcinoma” for “hepatoma”, “HeLa” for “HA22T/VGH”

[4] = system: human esophageal cancer cell line CE-81T/VGH; assay: MTT cell survival assay, esophageal cancer cells; type: cell-based; conditions: 5 μg/ml, 72 hours
Description: The purified compound was added into the culture media with human esophageal cancer cell line CE-81T/VGH to test for tumor cell survival. This survival assay was carried out with the abovementioned MTT assay, wherein the CE-81T/VGH esophageal cancer cell line was obtained from Taipei Veteran General Hospital, the cell line originated from the epithelium of human esophageal cancer cells.
as §1, with “esophageal cancer” for “hepatoma”, “CE-81T/VGH” for “HA22T/VGH”

human leukemic cell U937 [5] = assay: MTT cell survival assay, leukemic cells U937; type: cell-based
Description: Examples of the present invention adopted anti-tumor drugs screening model of National Cancer Institute (NCI) to examine inhibitory effect of the compound on cancer cells. The compound was added into culture medium containing leukemic cells U937 (a human monoblastoid leukemic cell line) to test for tumor cell survival. Cell survival rate is determined by well known MTT assay, and U937, a human myeloid leukemic cell line obtained from American Type Culture Collection (ATCC), is belonged to one of human acute leukemic cell lines and is classified as monoblasts during hematopoietic differentiation.
MTT assay is a commonly used method for analysis of percent of viable cells, wherein MTT (3-[4,5-dimethylthiazol-2-yl]2,5-diphenyltetrazolium bromide) is a yellow color dye that can be absorbed by living cells and be converted by mitochondria succinate tetrazolium reductase to water insoluble purple-blue formazan. Therefore, the amount of formazan formation can be used as an assessment tool to determine the survival rate of cells.
The human leukemia cell line U937 was cultivated in RPMI 1640 medium containing fetal calf serum for 24 hours and maintained in the exponential growth condition. The proliferating cells were treated with the compound in the concentration of 0 (the control group), 1.25, 2.5, 5 or 10 μg/ml at 37° C. under 5% CO2 for 24-72 hours, respectively. Then MTT was added in a concentration of 500 μg/ml into each wells in the dark and incubated for 4 hours, followed by the addition of 500 μl of isopropanol to stop the reaction. The plates were read on an ELISA reader at wavelength of 570 nm to determine the cell survival rates. The results were reported as the average±(plus/minus) SEM (Standard Error in the Mean). For statistical analysis, the t-test was used to compare the difference between each experiment result. p<0.05 was considered statistically significant.

human leukemic cell U937 [6] = assay: Mitochondria transmembrane potential, DiOC6(3) flow cytometry; type: cell-based; conditions: 5 μg/ml, 16 hours
Description: Human leukemic cell U937 was treated with the compound (5 μg/ml) for 16 hours. The same cells treated with anti-tumor agent camptothecin (4 μM) for 16 hours were used as positive control group, while untreated cells were used as control group. The cells were then washed with PBS solution, followed by addition of 40 nM 3,3′-dihexyloxacarbocyanine(DiOC6(3); Molecular Probes, Eugene, Oreg.) into culture medium at 37° C. in the dark and incubated for 15 minutes. The results were analyzed immediately using flow cytometry, wherein the excitation wavelength was set at 488 nm and emission wavelength set at 530 nm to detect fluorescence density and as representative of mitochondria transmembrane potential change.

[7] = system: human pancreatic cancer cell line BxPC-3; assay: MTT cell survival assay, pancreatic cancer cells; type: cell-based
Description: The test adopted the cell survival analysis (i.e., the MTT assay as described above). The purified compound was added into the culture media with human pancreatic cancer cell line BxPC-3 to test for tumor cell survival. This survival assay was carried out with the abovementioned MTT assay, wherein the pancreatic cancer cell line BxPc-3 was purchased from American Type Culture Collection (ATCC), the cell line originated from the epithelium of human pancreatic adenocarcinomas.
The human pancreatic cancer cell line BxPc-3 was cultivated in DMEM media containing 100 IU/ml penicillin (Invitrogen, Carlsbad, Calif.), 100 μg/ml streptomycin (Invitrogen, Carlsbad, Calif.), 2 mM glutamin (Invitrogen, Carlsbad, Calif.), and 10% fetal calf serum (Atlanta Biologicals, Norcross, Ga.). The proliferated cells were treated with the compound in the concentration of 0 (the control group), 5 and 10 μg/ml (the experimental group), respectively. The cells were incubated at 37° C. in a 5% CO2 incubator for 24-72 hours. 500 μg/ml of MTT was added into each well in the dark and incubated for 4 hours, followed by the addition of 500 μl of isopropanol to stop the reaction. The plates were read on an ELISA reader at wavelength of 570 nm to determine the cell survival rates. The results were reported as the average±(plus/minus) SEM (Standard Error in the Mean). […]

[8] = system: U937, BxPC-3, CE-81T/VGH, HA22T/VGH and HeLa tumor cell lines; assay: MTT assay, summary over the inhibited tumor cell lines; type: cell-based, human; conditions: range over U937, BxPC-3, CE-81T/VGH
[9] = system: human normal monocytes isolated from peripheral blood mononuclelar cells; assay: Viability of human normal monocytes; type: cell-based; conditions: for effect on normal monocytes: normal human peripheral blood monocytes
Description: FIG. 4 is a morphological assessment of human normal peripheral blood monocytes treated by the compound. Liu's stain method was used for morphological observation. (A) Control group and (B) Experimental group (treated with 5 μg/ml of the compound for 1 day).

tumor cells = assay: DNA gel electrophoresis, inter-nucleosomal DNA cleavage; type: cell-based; conditions: 5 μg/ml; 24 hours; 1.5% agarose gel
Description: Lane 1, molecular marker; Lane 2, control group; Lane 3, experimental group (treated with 5 μg/ml of the compound for 24 hours).
In addition to the morphological changes described above, cells may show some biochemical changes during cell apoptosis, including chromatin condensation, formation of apoptotic body due to cell fragmentation, and inter-nucleosomal cleavage of DNA that leading to formation of DNA ladder in DNA electrophoresis. To confirm the relationship of inhibition activity between the compound and the stage of cell apoptosis, the experiment adopted DNA electrophoresis to examine inter-nucleosomal cleavage of DNA into DNA ladder at late stage of cell apoptosis.
Total DNAs were extracted and analyzed by 1.5% agarose gel electrophoresis in TBE buffer (5 mM TBE buffer containing 1 μM EDTA, pH 8.0). The gel was stained with ethidium bromide and visualized under UV.

[10] = system: human leukemic cell line U937; assay: Cell cycle analysis by flow cytometry; type: cell-based; conditions: 2.5 μg/ml, 48 hours
Description: Flow cytometer was used to analyze the effect of the compound on cell cycle of human leukemic cells.
The compound in concentration of 2.5 μg/ml was used to treat human leukemic cell line U937, and cells without addition of compound were served as the control group. The treated cells after 48 hours of treatment were fixed at 4° C. with 70% ethanol for 1 hour and stained for 30 minutes with propidium iodide solution (0.5 mg/ml of propidium iodide; 0.1 mg/ml of RNAse) contained in a CycleTEST PLUS DNA reagent kit (Becton Dickinson, Lincoln Park, N.J.). DNA content measurement on the collected 10^4 cells was performed on the FACS Calibur flow cytometer (Becton Dickinson), and the cell cycle changes were analyzed using a ModFit software (Becton Dickinson).

Compound | block of induced growth inhibition by caspase 3 and pan-caspase inhibitors (caspase 3 and caspase 8) | inhibitory rate [1] [%] | growth inhibition [2] | inhibitory rate [3] [%] | inhibitory rate [4] [%] | inhibitory rate (human leukemic cell U937 [5]; U937, 1.25, 2.5, 5 and 10 μg/ml, all groups, third day) | inhibitory rate (human leukemic cell U937 [5]; U937, 5 and 10 μg/ml groups, third day) | highest inhibitory rate (human leukemic cell U937 [5]; U937, highest rate, 5 and 10 μg/ml groups, third day) [%] | IC50 (human leukemic cell U937 [5]; U937 cells, MTT) | mitochondria transmembrane potential change (human leukemic cell U937 [6]) | inhibition rate ([7]; 5 μg/ml (summary)) [%] | highest inhibitory rate ([7]; 5 and 10 μg/ml groups, third day, highest rate) [%] | inhibition rate on tumor cell lines [8] | viability inhibition ([9]; human normal monocytes) [%] | effect on normal monocytes [9] | effect on normal monocytes ([9]; listed as The compound) | genomic DNA fragmentation (DNA ladder) (tumor cells) | cell cycle distribution [10]
CC[C@@]1(O)C(=O)OCc2c1cc1n(c2=O)Cc2cc3ccccc3nc2-1 [camptothecin, reference compound] | could block |  |  |  |  |  |  |  |  |  |  |  |  |  |  |  |  | 
CC(C)=CCC[C@@H](CO)[C@H]1C[C@H](O)[C@@]2(C)C3=C(CC[C@]12C)[C@@]1(C)CC[C@H](O)C(C)(C)[C@@H]1CC3 [the compound, (22R)-5α-lanosta-8,24-dien-3β,15α,21-triol] |  | 90.3 | could not inhibit the growth | 56.8 | 61.4 | more than 60% | more than 95% | 99.8 | about 2 μg/ml | did not be exhibited significantly reduction of transmembrane potential | 49.1 | 48.5 | 48.5˜99.8% | < 10 | without toxicity to normal monocytes | no effect | induced the genomic DNA into oligonucleosomal fragmentations | hypoploidy, G2/M phase arrest, and polyploidy
